Where “and” joins values, the source holds several entries; their conditions need not be identical. Equal values may be shown once.
Assays:
RSV A2 = test: Plaque Reduction Assay 1 (Vero cells, immunostaining); format: cell-based; conditions: two replicate values, read-out: RSV Plaque Reduction assays A2 (PRNT1) (n = 2) IC50
Method: Plaque Reduction Assay 1: Vero cells were seeded in 96-well plates in a volume of 100 μL of Optimem supplemented with 3% FCS at a concentration of 4×10^4 cells per well. After an overnight incubation at 37° C. in a humidified 5% CO2 atmosphere, the monolayer of cells should be approximately 90% confluent. Antiviral compounds were titrated in pre-warmed Serum Free (SF) Optimem in a U-bottom 96 well plate. For compounds in a DMSO solution, titration in 100% DMSO was performed first and each concentration added individually to a 2× final concentration at 4% DMSO in SF media before mixing with virus (2% final DMSO with virus). Media was then removed from cells and replaced with PBS (100 μl/well). RSV stock was thawed and diluted in SF Optimem media to 4000 PFU/mLl. An equal volume of virus was added to compounds on the titration plate. PBS was removed from cells which were then inoculated with the virus/compound solution (50 μL/well). Cells were incubated for 2 h in a 37° C.+5% CO2 humidified incubator to allow infection. Inoculum was removed and media (Optimem+1% FCS) added to cells (100 μl/well). Cells were subsequently incubated for 48 h at 37° C.+5% CO2 in a humidified incubator. Immunostaining Procedure: Media was removed from cells and the monolayer washed with PBS. Cells were fixed with ice cold 80% Acetone in PBS (100 μl/well) for 20 mins at −20° C. Fixative was removed and cells are dried for 30 mins with plates inverted. Blocking solution (5% skim milk powder in PBS-T) was added to cells (150 μL/well) and plates were incubated for 30 mins at room temperature. Blocking solution was removed and plates washed once with PBS-T. Primary antibody in blocking solution was added to plates (50 μl/well) and incubated for 1 h at 37° C. Plates were then washed 3 times with PBS-T. Secondary antibody in blocking solution was added to plates ([…]) and incubated for 1 h at 37° C. in the dark. Plates were washed as above and then dried for 10 mins. Plates were scanned on the Odyssey Imager (Li-Cor Biosciences) at a resolution of […], medium quality and level 5 intensity in the […]. Data Analysis: Images obtained were saved and plaque numbers counted with the aid of computer imaging software. EC50 values for compounds were derived from dose response curves [three variable log(inhibitor) vs response] obtained using Graphpad Prism software.

P-gp (MDR1), human = test: in vitro; format: in vitro ADME; conditions: dog, MDCK-MDR1
Method: MDR I-MDCK Permeability: Experimental Procedure
MDR1-MDCK cells obtained from the NIH (Rockville, Md., USA) are used between passage numbers 6-30. Cells are seeded onto Millipore Multiscreen Transwell plates at 3.4×10^5 cells/cm2. The cells are cultured in DMEM and media is changed on day 3. On day 4 the permeability study is performed. Cell culture and assay incubations are carried out at 37° C. in an atmosphere of 5% CO2 with a relative humidity of 95%. On the day of the assay, the monolayers are prepared by rinsing both basolateral and apical surfaces twice with Hanks Balanced Salt Solution (HBSS) at the desired pH warmed to 37° C. Cells are then incubated with HBSS at the desired pH in both apical and basolateral compartments for 40 min to stabilise physiological parameters.
The dosing solutions are prepared by diluting test compound with assay buffer to give a final test compound concentration of 10 μM (final DMSO concentration of 1% v/v). […]
Test compound permeability is assessed in duplicate. […]
Test and control compounds are quantified by LC-MS/MS cassette analysis using an 8-point calibration with appropriate dilution of the samples. The starting concentration (C0) is determined from the dosing solution and the experimental recovery calculated from C0 and both apical and basolateral compartment concentrations. […]

RSV A2 VR-1540 = test: Plaque Reduction Assay 2 (HEp-2 cells, virospot count); format: cell-based; conditions: human respiratory syncytial virus, 24 h; RSV A2, HEp-2 cells, 1 day
From the text: Plaque Reduction Assay 2:
This RSV plaque reduction assay is an infectivity assay which allows quantification of the number of infectious units in a distinct foci of RSV infection. This is indicated by zones of viral antigen detected by specific antibody staining within a monolayer of otherwise healthy tissue culture cells. As each plaque originates from a single infectious virus particle an accurate calculation of the anti-viral effect can be obtained by counting plaques in the presence and absence of an anti-viral compound. HEp-2 cells (ATCC, CCL23) were passaged in flasks and seeded in 96-well plates in DMEM containing antibiotics and supplemented with 10% FBS. During inoculation and subsequent incubation, cells were cultured in DMEM containing 3% FBS. 100 plaque forming unit (PFU)/well of RSV (RSV A2 VR-1540) was mixed with ten serial dilutions of compound. Subsequently, 100 μL of the virus/compound mixtures was added to confluent HEp-2 cell monolayers. The cells and virus/compound mixtures were incubated at 35° C. in a humidified 5% CO2 incubator for 1 day.
Cells were washed twice with PBS before adding 50% v/v EtOH/MeOH, and then stored at −20° C. On the day of the staining, fixative was first removed from the plates. Plates were washed 3× with PBS. A pre-titrated amount of the primary antibody was added in 60 μL PBS/2% milk powder, and plates incubated for 1 h at rt. The plates were washed 3× with PBS/0.05% Tween20 before addition of goat anti-mouse horse radish peroxidase in 60 μL PBS/2% milk powder, and incubated for 1 h at rt. Following three wash steps with PBS/0.05% Tween20, 60 μL ready-to-use TrueBlue was added and plates were incubated at rt for 10-15 min before adding MilliQ water. Plates were washed once with water, incubated for 30-60 min and after removal of water, air-dried in the dark.
Plates were scanned and analyzed using the Immunospot S6 UV analyzer, which is equipped with BioSpot analysis software for counting immunostained plaques (virospots). Plaque counts were used to calculate % infection relative to the mean of the spot count (SC) in the virus control wells for RSV. IC50/IC90 values were calculated as 50% or 90% reduction in signal, respectively, by interpolation of inhibition curves fitted with a 4-parameter nonlinear regression with a variable slope in GraphPad 5.0 (Prism).

For `NC1CCN(c2ncc(CN3C(=O)C4(CC4)c4ccc(F)cc43)c(N[C@H]3CC[C@H](O)CC3)n2)C1` (stereo partly shown) [Compound 2, 1′-((2-(3-Aminopyrrolidin-1-yl)-4-(((1r,4r)-4-hydroxycyclohexyl)amino)pyrimidin-5-yl)methyl)-6′-fluorospiro[cyclopropane-1,3′-indolin]-2′-one], the IC50 (RSV A2) was 18.9 nM and 4.63 nM, the Papp A→B at 60 min, 10 μM (P-gp (MDR1), human) was 0.32 ×10⁻⁶ cm/s and the Papp B→A at 60 min, 10 μM (P-gp (MDR1), human) was 7.99 ×10⁻⁶ cm/s. For the same compound, the IC50 (RSV A2 VR-1540) was 58 nM.
